The target in this test is T1, human M1 receptor (hCHRM1) (Homo sapiens, UniProt P11229).
T1 construct: expressed in transfected cells; host or cells: CHO-K1
T1 sequence (P11229 1-460): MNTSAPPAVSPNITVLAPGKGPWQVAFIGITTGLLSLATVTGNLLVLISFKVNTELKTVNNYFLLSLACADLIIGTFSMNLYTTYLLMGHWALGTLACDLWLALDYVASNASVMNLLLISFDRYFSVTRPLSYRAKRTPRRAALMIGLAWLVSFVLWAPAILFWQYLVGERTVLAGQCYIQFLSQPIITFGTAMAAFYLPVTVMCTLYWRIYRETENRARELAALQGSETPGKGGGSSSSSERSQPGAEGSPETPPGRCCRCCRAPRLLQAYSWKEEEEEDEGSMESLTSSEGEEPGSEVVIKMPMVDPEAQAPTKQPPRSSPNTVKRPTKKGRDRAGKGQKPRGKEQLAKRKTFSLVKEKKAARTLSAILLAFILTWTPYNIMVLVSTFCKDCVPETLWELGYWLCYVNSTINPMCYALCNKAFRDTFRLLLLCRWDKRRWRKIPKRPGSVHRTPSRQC
In words: Measurement of M1 receptor positive allosteric modulator (M1PAM) activity, calcium fluorescence (FLIPRtetra) in CHO-K1 cells in the presence of acetylcholine at EC20. The format is cell-based. The note with it: in the presence of acetylcholine at EC20 (final 0.6 nM), CHO-K1 cells expressing hCHRM1; for EC50: inflection point of M1PAM activity, read-out: IP value; for activity (%) at 10 μM: test compound 10 μM. The procedure, abridged: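 CHO-K1 cells expressing human M1 were loaded with Fluo-4 AM, and compound was added with acetylcholine at EC20 (final 0.6 nM). Calcium fluorescence was read on FLIPRtetra for 1 min. Activity was normalized to 1 μM acetylcholine (100%) and DMSO (0%), and the curve inflection point was reported as IP.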

For `Cn1ccc(-c2ccc(CN3Cc4ccnc(Oc5c(F)cc(C#N)cc5F)c4C3=O)c(F)c2)n1` [Example 387, 3,5-difluoro-4-((2-(2-fluoro-4-(1-methyl-1H-pyrazol-3-yl)benzyl)-3-oxo-2,3-dihydro-1H-pyrrolo[3,4-c]pyridin-4-yl)oxy)benzonitrile], the EC50 came to 7.1 nM and the “activity (%) at 10 μM” value was determined as 102%.

For `Cc1nn(C)cc1-c1ccc(CN2Cc3ccnc(OC4CCc5cccnc54)c3C2=O)c(F)c1` (stereo not shown) [Example 346, 4-(6,7-dihydro-5H-cyclopenta[b]pyridin-7-yloxy)-2-(4-(1,3-dimethyl-1H-pyrazol-4-yl)-2-fluorobenzyl)-1,2-dihydro-3H-pyrrolo[3,4-c]pyridin-3-one], the EC50 is 2.1 nM and the “activity (%) at 10 μM” value is 85%.

Consider `Cc1cc(-c2ccc(CN3Cc4ccnc(Oc5ccc(C(C)(C)F)cc5F)c4C3=O)cc2)cnn1` [Example 410, 4-(2-fluoro-4-(2-fluoropropan-2-yl)phenoxy)-2-(4-(6-methylpyridazin-4-yl)benzyl)-1,2-dihydro-3H-pyrrolo[3,4-c]pyridin-3-one], for which the EC50 is 19 nM and the “activity (%) at 10 μM” value came out at 99%.

Turning to `Cn1cc(-c2ccc(CN3Cc4ccnc(OCC5CC5)c4C3=O)c(F)c2)nn1` [Example 331, 4-(cyclopropylmethoxy)-2-(2-fluoro-4-(1-methyl-TH-1,2,3-triazol-4-yl)benzyl)-1,2-dihydro-3H-pyrrolo[3,4-c]pyridin-3-one], the EC50 was 16 nM and the “activity (%) at 10 μM” value is recorded as 104%.

Regarding `O=C1c2c(cccc2O[C@H]2CCCC[C@@H]2O)CN1Cc1ccc(-c2cn[nH]c2)cc1` (relative stereo) [Example 26, 7-((trans-2-hydroxycyclohexyl)oxy)-2-(4-(1H-pyrazol-4-yl)benzyl)isoindolin-1-one], the EC50 came out at 4.1 nM and the “activity (%) at 10 μM” value came to 96%.

Consider `Cl.N#Cc1cccc(F)c1Oc1cccc2c1C(=O)N(Cc1ccc(-c3ccn[nH]3)cc1)C2` [Example 42, 3-fluoro-2-((3-oxo-2-(4-(1H-pyrazol-5-yl)benzyl)-2,3-dihydro-1H-isoindol-4-yl)oxy)benzonitrile hydrochloride], for which the EC50 came out at 85 nM and the “activity (%) at 10 μM” value is 107%.

With `Cn1cc(-c2ccc(CN3Cc4cccc(Oc5c(Cl)cccc5C#N)c4C3=O)cc2)cn1` [Example 9, 3-chloro-2-((2-(4-(1-methyl-1H-pyrazol-4-yl)benzyl)-3-oxo-2,3-dihydro-1H-isoindol-4-yl)oxy)benzonitrile], the EC50 came to 34 nM and the “activity (%) at 10 μM” value worked out at 93%.

As for `Cn1cc(-c2ccc(CN3Cc4ccnc(Oc5ccc(C(F)F)cc5F)c4C3=O)cc2)cn1` [Example 391, 4-(4-(difluoromethyl)-2-fluorophenoxy)-2-(4-(1-methyl-1H-pyrazol-4-yl)benzyl)-1,2-dihydro-3H-pyrrolo[3,4-c]pyridin-3-one], the EC50 is 10 nM and the “activity (%) at 10 μM” value came out at 100%.

As for `CCc1ccc(Oc2nccc3c2C(=O)N(Cc2ccc(C(=O)NC)nc2)C3)c(F)c1` [Example 453, 5-((4-(4-ethyl-2-fluorophenoxy)-3-oxo-1,3-dihydro-2H-pyrrolo[3,4-c]pyridin-2-yl)methyl)-N-methylpyridine-2-carboxamide], the EC50 is 56 nM and the “activity (%) at 10 μM” value turned out to be 97%.

Take `C[C@@H](O)[C@@H](C)Oc1nccc2c1C(=O)N(Cc1ccc(Cl)cc1)C2` [Example 423, 2-(4-chlorobenzyl)-4-(((2R,3R)-3-hydroxybutan-2-yl)oxy)-1,2-dihydro-3H-pyrrolo[3,4-c]pyridin-3-one]: the EC50 came to 90 nM and the “activity (%) at 10 μM” value is listed as 96%.

With “1,5-anhydro-2-deoxy-4-O-(3-oxo-2-(4-(1H-pyrazol-1-yl)benzyl)-2,3-dihydro-1H-isoindol-4-yl)-threo-pentitol [Example 241]”, the EC50 was found to be 13 nM and the “activity (%) at 10 μM” value was found to be 101%.

Take `Cn1cc(-c2ccc(CN3Cc4cccc(OCCN5CCCC5)c4C3=O)cc2)cn1` [Example 8, 2-(4-(1-methyl-1H-pyrazol-4-yl)benzyl)-7-(2-(pyrrolidin-1-yl)ethoxy)isoindolin-1-one]: the EC50 is 33 nM and the “activity (%) at 10 μM” value is reported as 99%.

With `Cn1cc(-c2ccc(CN3Cc4cccc(OCCn5cccn5)c4C3=O)cc2)cn1` [Example 19, 2-(4-(1-methyl-1H-pyrazol-4-yl)benzyl)-7-(2-(H-pyrazol-1-yl)ethoxy)isoindolin-1-one], the EC50 amounted to 110 nM and the “activity (%) at 10 μM” value is reported as 91%.

As for `O=C1c2c(cccc2O[C@@H]2CCOC[C@H]2O)CN1Cc1c(F)cc(F)cc1F` (single isomer, unassigned) [Example 318, 1,5-anhydro-2-deoxy-3-O-(3-oxo-2-(2,4,6-trifluorobenzyl)-2,3-dihydro-1H-isoindol-4-yl)-threo-pentitol], the EC50 is 26 nM and the “activity (%) at 10 μM” value is listed as 99%.

In the case of `CCc1cc(F)c(Oc2nccc3c2C(=O)N(Cc2ccc(-n4cnc(C)c4)cc2)C3)c(F)c1` [Example 429, 4-(4-ethyl-2,6-difluorophenoxy)-2-(4-(4-methyl-1H-imidazol-1-yl)benzyl)-1,2-dihydro-3H-pyrrolo[3,4-c]pyridin-3-one], the EC50 was 11 nM and the “activity (%) at 10 μM” value was 109%.

With `CCC(CO)Oc1nccc2c1C(=O)N(Cc1ccc(-c3cn(C)nc3C)cc1)C2` (single isomer, unassigned) [Example 275, 2-(4-(1,3-dimethyl-1H-pyrazol-4-yl)benzyl)-4-((l-hydroxybutan-2-yl)oxy)-1,2-dihydro-3H-pyrrolo[3,4-c]pyridin-3-one], the EC50 worked out at 76 nM and the “activity (%) at 10 μM” value is given as 104%.

Take `COc1cccc(F)c1Oc1nccc2c1C(=O)N(Cc1ccc(-c3cn(C)nc3C)cc1)C2` [Example 357, 2-(4-(1,3-dimethyl-1H-pyrazol-4-yl)benzyl)-4-(2-fluoro-6-methoxyphenoxy)-1,2-dihydro-3H-pyrrolo[3,4-c]pyridin-3-one]: the EC50 turned out to be 51 nM and the “activity (%) at 10 μM” value stood at 90%.

Regarding `Cc1cc(-c2ccc(CN3Cc4ccnc(Oc5ccc(C(F)(F)F)cc5C)c4C3=O)cc2)cnn1` [Example 407, 2-(4-(6-methylpyridazin-4-yl)benzyl)-4-(2-methyl-4-(trifluoromethyl)phenoxy)-1,2-dihydro-3H-pyrrolo[3,4-c]pyridin-3-one], the EC50 amounted to 74 nM and the “activity (%) at 10 μM” value was determined as 89%.

Take `Cc1cc(C#N)cc(F)c1Oc1nccc2c1C(=O)N(Cc1ccc(-c3ccn(C)n3)cc1)C2` [Example 417, 3-fluoro-5-methyl-4-((2-(4-(1-methyl-1H-pyrazol-3-yl)benzyl)-3-oxo-2,3-dihydro-1H-pyrrolo[3,4-c]pyridin-4-yl)oxy)benzonitrile]: the EC50 came to 16 nM and the “activity (%) at 10 μM” value worked out at 96%.

On to `C[C@@H](O)[C@@H](C)Oc1nccc2c1C(=O)N(Cc1c(F)cc(F)cc1F)C2` [Example 425, 4-(((2R,3R)-3-hydroxybutan-2-yl)oxy)-2-(2,4,6-trifluorobenzyl)-1,2-dihydro-3H-pyrrolo[3,4-c]pyridin-3-one], for which the EC50 is 86 nM and the “activity (%) at 10 μM” value amounted to 102%.

For the origin of these results see patent publication US9777005B2 (Takeda Pharmaceutical Company Limited, priority 2012, dated 2017).
